Test results taken from ChEMBL document CHEMBL5214928, “DEAD-Box Helicase DDX3X as a Host Target against Emerging Viruses: New Insights for Medicinal Chemical Approaches” (J Med Chem, 2022).

How the values were obtained:
[1] = target: T1, ATP-dependent RNA helicase DDX3X (Homo sapiens, UniProt O00571); assay: Binding affinity to DDX3X (unknown origin) assessed as inhibition constant
[2] = Cytotoxicity against African green monkey Vero cells assessed as reduction in cell viability incubated for 22 hrs by XTT assay; format: toxicity, cell-based; details: chlorocebus sabaeus
[3] = Selectivity index, ratio of CC50 for human Huh-7 cells to EC50 for HCV-1 infected in human Huh-7 cells; format: toxicity, cell-based; details: read-out: Ratio CC50/EC50
[4] = Half life in mouse administered intraperitoneally; format: ADME; details: in vivo, route ip
[5] = tested on: Respiratory syncytial virus; assay: Antiviral activity against RSV infected in African green monkey Vero cells assessed as reduction in viral replication incubated for 22 hrs by plaque formation assay; format: functional, organism-based; details: human respiratory syncytial virus
[6] = tested on: West Nile virus; assay: Antiviral activity against WNV infected in African green monkey Vero cells assessed as reduction in viral replication incubated for 22 hrs by plaque formation assay; format: functional, organism-based
[7] = Selectivity index, ratio of CC50 for African green monkey Vero cells to EC50 for WNV infected in African green monkey Vero cells; format: toxicity; details: read-out: Ratio CC50/EC50
[8] = tested on: Huh-7; assay: Cytotoxicity against human Huh-7 cells assessed as reduction in cell viability; format: functional
[9] = Cytotoxicity against African green monkey Vero E6 cells assessed as reduction in cell viability; format: toxicity, cell-based, Vero C1008; details: chlorocebus sabaeus
[10] = tested on: Hepatitis C virus; assay: Antiviral activity against HCV-1 infected in human Huh-7 cells assessed as reduction in viral replication; format: functional, organism-based, Hepacivirus hominis; details: genotype 1, Huh-7
[11] = Selectivity index, ratio of CC50 for African green monkey Vero cells to EC50 for DENV-2 infected in African green monkey Vero cells; format: toxicity; details: read-out: Ratio CC50/EC50
[12] = tested on: Human respirovirus 3; assay: Antiviral activity against hPIV-3 infected in African green monkey Vero cells assessed as reduction in viral replication incubated for 22 hrs by plaque formation assay; format: functional, organism-based; details: Human respirovirus 3, Vero
[13] = Selectivity index, ratio of CC50 for African green monkey Vero cells to EC50 for ZIKV infected in African green monkey Vero cells; format: toxicity; details: read-out: Ratio CC50/EC50
[14] = tested on: dengue virus type 2; assay: Antiviral activity against DENV-2 infected in African green monkey Vero cells assessed as reduction in viral replication incubated for 22 hrs by plaque assay; format: functional, organism-based
[15] = tested on: SARS-CoV-2; assay: Antiviral activity against SARS-CoV-2 isolate 2019-nCoV/Italy-INMI1 infected in African green monkey Vero E6 cells assessed as reduction in viral replication at MOI of 0.01 incubated for 5 days by qRT-PCR analysis; format: functional, organism-based; details: Severe acute respiratory syndrome coronavirus 2, 2019-nCoV/Italy-INMI1, Vero C1008, 120 h
[16] = tested on: Zika virus; assay: Antiviral activity against ZIKV infected in African green monkey Vero cells assessed as reduction in viral replication incubated for 22 hrs by plaque assay; format: functional, organism-based
[17] = Selectivity index, ratio of CC50 for African green monkey Vero cells to EC50 for hPIV-3 infected in African green monkey Vero cells; format: toxicity; details: read-out: Ratio CC50/EC50
[18] = Selectivity index, ratio of CC50 for African green monkey Vero cells to EC50 for RSV infected in African green monkey Vero cells; format: toxicity; details: read-out: Ratio CC50/EC50
[19] = tested on: Japanese encephalitis virus; assay: Antiviral activity against JEV SA14-14-2 infected in hamster BHK-21 cells assessed as reduction in viral replication by plaque formation assay; format: functional, organism-based; details: SA14-14-2, BHK-21
[20] = Cytotoxicity against hamster BHK-21 cells assessed as reduction in cell viability at MOI of 0.01 incubated for 48 hrs by plaque formation assay; format: toxicity, cell-based, Mesocricetus auratus
[21] = Selectivity index, ratio of CC50 for hamster BHK-21 cells to EC50 for JEV SA14-14-2 infected in hamster BHK-21 cells; format: toxicity, cell-based; details: read-out: Ratio CC50/EC50
[22] = tested on: Human immunodeficiency virus 1; assay: Antiviral activity against HIV-1 NL4-3 infected in PBMC (unknown origin) assessed as reduction in viral replication; format: functional, organism-based; details: Human immunodeficiency virus 1, NL4-3, PBMC
[23] = Selectivity index, ratio of CC50 for hepatoma cells (unknown origin) to EC50 for HCV-1 infected in hepatoma cells (unknown origin); format: toxicity, cell-based; details: read-out: Ratio CC50/EC50
[24] = Cytotoxicity against PBMC (unknown origin) assessed as reduction in cell viability; format: toxicity, cell-based
[25] = Selectivity index, ratio of CC50 for human LucUbiNeo-ET cells to EC50 for HCV-1 infected in human LucUbiNeo-ET cells; format: toxicity, cell-based; details: read-out: Ratio CC50/EC50
[26] = tested on: West Nile virus; assay: Antiviral activity against WNV infected in human Huh-7 cells assessed as reduction in viral replication; format: functional, organism-based
[27] = Cytotoxicity against human LucUbiNeo-ET cells assessed as reduction in cell viability by MTT assay; format: functional
[28] = Selectivity index, ratio of CC50 for PBMC (unknown origin) to EC50 for HIV-1 NL4-3 infected in PBMC (unknown origin); format: toxicity; details: read-out: Ratio CC50/EC50
[29] = tested on: dengue virus type 2; assay: Antiviral activity against DENV-2 New Guinea C infected in human Huh-7 cells assessed as reduction in viral replication; format: functional, organism-based
[30] = tested on: Hepatitis C virus; assay: Antiviral activity against HCV-1 infected in human LucUbiNeo-ET cells assessed as reduction in viral replication incubated for 2 days by luminometry; format: functional, organism-based, Hepacivirus hominis; details: genotype 1, LucUbiNeo-ET, 48 h
[31] = Selectivity index, ratio of CC50 for human Huh-7 cells to EC50 for WNV infected in human Huh-7 cells; format: toxicity, cell-based; details: read-out: Ratio CC50/EC50
[32] = Selectivity index, ratio of CC50 for human Huh-7 cells to EC50 for DENV-2 New Guinea C infected in human Huh-7 cells; format: toxicity, cell-based; details: read-out: Ratio CC50/EC50
[33] = Half life in rat administered intravenously; format: ADME; details: in vivo, route iv
[34] = target: T1, ATP-dependent RNA helicase DDX3X; assay: Inhibition of recombinant DDX3X (unknown origin) helicase activity using 6-FAM-labeled dsRNA as substrate incubated for 30 mins by fluorescence based assay
[35] = tested on: Human immunodeficiency virus 1; assay: Antiviral activity against recombinant HIV-1 infected in CD4+ human HeLa cells assessed as reduction in viral replication; format: functional, organism-based; details: Human immunodeficiency virus 1, HeLa
[36] = tested on: HeLa; assay: Cytotoxicity against human HeLa cells assessed as reduction in cell viability incubated for 72 hrs with replacement of medium containing compound for every 24 hrs by MTS based Cell Titer 96 viability assay; format: functional
[37] = Selectivity index, ratio of CC50 for human HeLa cells to EC50 for recombinant HIV-1 infected in CD4+ human HeLa cells; format: toxicity, cell-based; details: read-out: Ratio CC50/EC50
[38] = target: T1, ATP-dependent RNA helicase DDX3X; assay: Inhibition of DDX3X (unknown origin) helicase activity
[39] = Half life in mouse administered intravenously; format: ADME; details: in vivo, route iv
[40] = tested on: Hepatoma cell line; assay: Cytotoxicity against hepatoma cells (unknown origin) assessed as reduction in cell viability; format: functional
[41] = tested on: Hepatitis C virus; assay: Antiviral activity against HCV-1 infected in hepatoma cells (unknown origin) assessed as reduction in viral replication; format: functional, organism-based, Hepacivirus hominis; details: genotype 1, Hepatoma cell line

T1 sequence (O00571 whole entry): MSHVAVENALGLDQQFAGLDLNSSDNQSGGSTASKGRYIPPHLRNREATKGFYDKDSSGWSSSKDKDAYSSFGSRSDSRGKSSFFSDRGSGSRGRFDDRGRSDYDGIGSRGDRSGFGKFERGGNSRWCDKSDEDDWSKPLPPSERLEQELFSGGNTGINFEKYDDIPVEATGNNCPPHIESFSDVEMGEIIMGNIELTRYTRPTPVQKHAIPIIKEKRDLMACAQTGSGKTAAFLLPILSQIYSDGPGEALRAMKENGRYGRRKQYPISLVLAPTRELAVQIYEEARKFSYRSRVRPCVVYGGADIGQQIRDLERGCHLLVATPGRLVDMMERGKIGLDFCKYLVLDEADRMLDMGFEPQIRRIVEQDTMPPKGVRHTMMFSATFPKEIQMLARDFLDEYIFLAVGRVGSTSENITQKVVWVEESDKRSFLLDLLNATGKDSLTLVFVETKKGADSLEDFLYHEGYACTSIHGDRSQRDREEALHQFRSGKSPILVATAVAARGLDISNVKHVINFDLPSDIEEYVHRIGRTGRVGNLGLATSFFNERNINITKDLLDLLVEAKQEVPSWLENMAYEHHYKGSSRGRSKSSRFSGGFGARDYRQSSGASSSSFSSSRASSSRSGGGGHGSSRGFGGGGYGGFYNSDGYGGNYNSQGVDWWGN

Which Ki [1] does the source give for `COc1cc(/C=C2\SC(=S)N(CCC(=O)Nc3ccccc3O)C2=O)cc(OC)c1OC` here?
The Ki was 3.9 µM.

For `COc1ccc(/C=C2\SC(=S)N(CCC(=O)Nc3cccc(O)c3)C2=O)cc1`, which Ki [1] is on record?
The Ki was 2 µM.

Which results are given for `COc1ccc(Cn2c3ncnc4c(ncn4Cc4ccc(OC)cc4)c-3nc2=O)cc1`?
CC50 at 22 h [2]: 29.7 µM; selectivity ratio [3]: < 5; half-life [4]: 7 h; EC50 [5]: 13.4 µM; EC50 [6]: 8.5 µM; selectivity ratio [7]: 3.5; CC50 [8]: < 10 µM; CC50 [9]: > 30 µM; EC50 [10]: 2 µM; selectivity ratio [11]: 3.5; EC50 [12]: 28.2 µM; selectivity ratio [13]: 4.2; EC50 [14]: 8.5 µM; EC50 [15]: < 5 µM; EC50 [16]: 7 µM; selectivity ratio [17]: 1; selectivity ratio [18]: 2.2

For `Cc1ccccc1NC(=O)Nc1cccc([N+](=O)[O-])c1`, which EC50 [19] is on record?
Its EC50 is 10 µM.

What about the CC50 at 48 h [20] of the same compound?
Its CC50 at 48 h is greater than 50 µM.

What about the selectivity ratio [21] of the same compound?
The selectivity ratio was greater than 5.

What does the source list for `CCCCc1cn(-c2ccc(NC(=O)Nc3ccccc3C)cc2)nn1`?
EC50 [22]: 1.1 µM; selectivity ratio [23]: > 200; CC50 [24]: > 100 µM; selectivity ratio [25]: 51; EC50 [26]: 16.5 µM; CC50 [27]: 49.8 µM; selectivity ratio [28]: 91; EC50 [29]: 2.55 µM; EC50 [19]: 20 µM; CC50 at 48 h [20]: > 50 µM; selectivity ratio [21]: > 2.5; EC50 [30]: 0.97 µM; selectivity ratio [31]: > 12; selectivity ratio [32]: 78; half-life [33]: 3 h

With `O=[N+]([O-])c1cccc(S(=O)(=O)Nc2ccccc2O)c1` as the compound, how does the IC50 [34] read?
Its IC50 is 0.36 µM.

Which Ki [1] does the source give for `O=C(CCN1C(=O)/C(=C/c2cccc(Br)c2)SC1=S)Nc1cccc(O)c1` here?
The Ki was 90 µM.

For `OCCc1cc(Nc2ccc(F)cc2)nc(N/N=C/c2ccccc2O)n1`, which EC50 [35] is on record?
Its EC50 is 6.5 µM.

And the CC50 [36]?
Its CC50 is 65 µM.

What about the selectivity ratio [37] of the same compound?
Its selectivity ratio is 10.

With `Oc1ccccc1/C=N/Nc1nc(Nc2cccc(Cl)c2)nc(NN2CCOCC2)n1` as the compound, how does the Ki [1] read?
The Ki was 0.4 µM.

With `COc1cccc(NC(=O)CCN2C(=O)/C(=C/c3ccccc3O)SC2=S)c1` as the compound, how does the Ki [1] read?
The Ki was 10 µM.

With `Cc1ccccc1NC(=O)Nc1ccc(-n2cc(CO)nn2)cc1` as the compound, how does the Ki [38] read?
Its Ki is 17.5 µM.

For `C(=N\Nc1nc(Nc2ccccc2)nc(Nc2ccccc2)n1)/c1ccccc1`, which Ki [1] is on record?
The Ki was 7.5 µM.

With `CC(C)Cc1cn(-c2ccc(NC(=O)Nc3ccc4cnccc4c3)cc2)nn1` as the compound, how does the selectivity ratio [25] read?
The selectivity ratio was 94.

What about the CC50 [27] of the same compound?
Its CC50 is greater than 312 µM.

What about the EC50 [30] of the same compound?
The EC50 was 0.9 µM.

And the IC50 [38]?
Its IC50 is 0.15 µM.

What about the half-life [39] of the same compound?
The half-life was 5 h.

Which CC50 [40] does the source give for `CCCCCCCCCCCCCCCCCCNC1=NC(=O)C2C(N=CN2[C@@H]2O[C@H](CO)[C@@H](O)[C@H]2O)C(=O)N1` (stereo partly drawn) here?
Its CC50 is greater than 630 µM.

And the selectivity ratio [23]?
Its selectivity ratio is greater than 35.

What about the EC50 [26] of the same compound?
Its EC50 is 0.51 µM.

What about the selectivity ratio [31] of the same compound?
Its selectivity ratio is greater than 195.

What about the CC50 [8] of the same compound?
The CC50 was greater than 100 µM.

What about the EC50 [41] of the same compound?
The EC50 was 18 µM.

For `Oc1ccc(Cl)cc1/C=N/Nc1nc(NCc2ccccc2)nc(NN2CCOCC2)n1`, which Ki [1] is on record?
The Ki was 1.9 µM.

With `COc1cc(/C=C2\SC(=S)N(CCC(=O)Nc3ccccc3Cl)C2=O)cc(OC)c1OC` as the compound, how does the Ki [1] read?
Its Ki is 0.1 µM.

With `COc1ccc(/C=C2\SC(=S)N(CCC(=O)Nc3ccccc3OC)C2=O)cc1` as the compound, how does the Ki [1] read?
The Ki was 11 µM.

Which Ki [1] does the source give for `O=[N+]([O-])c1cccc(/C=N/Nc2nc(NCc3ccccc3)nc(NNc3ccc(F)cc3)n2)c1O` here?
The Ki was 4 µM.

For `O=C(CCN1C(=O)/C(=C/c2ccc3c(c2)OCO3)SC1=S)Nc1ccccc1[N+](=O)[O-]`, which Ki [1] is on record?
Its Ki is 1 µM.

Which Ki [1] does the source give for `O=C(NCCN1C(=O)/C(=C/c2ccccc2O)SC1=S)c1cccc(Br)c1` here?
The Ki was 4.2 µM.
